According to patent US20220000871A1, “METHODS AND COMPOSITIONS FOR TREATING NEURODEGENERATIVE DISEASES USING MODULATORS OF PHOSPHOGLYCERATE KINASE 1 (PGK1) ACTIVITY” (UNIVERSITY OF IOWA RESEARCH FOUNDATION, priority 2019, published 2022):

Tested on: patients with PD
Experiment: Analysis of the PPMI database (MDS-UPDRS Part 3 motor progression)
Assay type: in vivo, human
Conditions: for rate of motor function decline / progression of motor disability: PPMI database, vs controls; for MDS-UPDRS Part 3 Slope of change/month, mean ± S.E.: PPMI, male PD patients, baseline to ~1 year
From the text: FIG. 7. TZ and related drugs slow progression of motor defects for patients with PD enrolled in the PPMI database. MDS-UPDRS Part 3 (motor) scores of PD patients in the PPMI database. Patients were taking TZ/DZ/AZ (blue, N=13), tamsulosin (green, N=24), or neither (red, N=269). Data are scores at entry into PPMI through ˜1 year and include all measures between those times. All patients taking these drugs were males prescribed TZ/DZ/AZ or tamsulosin without breaks for benign prostatic hyperplasia or undefined urological problems. Lines are plotted from linear mixed effect regression analyses. By maximum likelihood estimation, TZ/DZ/AZ differed from controls (P=0.012).
FIG. 18. UPDRS scores for 13 patients with PD taking TZ/DZ/AZ. Each set of data points and lines indicates an individual patient. Bold line and shading indicate the linear regression line and 95% confidence intervals for the 13 patients. See legend of FIG. 7 for more information.
We analyzed data from the PPMI database (21) for patients taking TZ alone, TZ/DZ/AZ, or tamsulosin. We tested if these drugs influenced the rate of motor progression as measured by part III of the Movement Disorder Society's Unified Parkinson's Disease Rating Scale ([…]), which is a metric of motor disability in Parkinson's disease (22). For this analysis, only participants who were using TZ/DZ/AZ or tamsulosin at their baseline PPMI visit were included in the drug groups. PPMI protocol dictates that the fourth visit should occur approximately one year after the baseline visit; accordingly, any visit that occurred between the baseline visit and the fourth PPMI visit were included. Participants also had to have more than one visit to be included. Of the 13 participants in the TZ/DZ/AZ group, 11 were taking the medication-of-interest without breaks until their fourth visit. One participant was taking DZ at the time of their baseline visit, but discontinued within 30 days of their baseline visit. That participant was only considered to be using DZ during their first and second visits. Another participant was using AZ at their baseline visit and for approximately 5 months after that. This participant was considered to be taking AZ during their first and second visits. If these two participants were excluded from the analysis and only participants who were taking the medication-of-interest without breaks in therapy were included, the results change only marginally. The TZ/DZ/AZ group (n=11) has a slope of change of 0.02±0.21 compared to 0.53±0.05 in the control group (n=269, p=0.015). […]
Only MDS-UPDRS readings that were obtained when the participants were not yet taking a PD medication or were in the practically defined OFF state (at least 6 hours after the last dose of levodopa or any other anti-PD medication) were utilized for this analysis. […]

Compound	rate of motor function decline / progression of motor disability	MDS-UPDRS Part 3 Slope of change/month, mean ± S.E.
COc1cc2nc(N3CCN(C(=O)C4CCCO4)CC3)nc(N)c2cc1OC (stereo not shown) [TZ, terazosin]	slower	0.01 ± 0.25
CCOc1ccccc1OCCN[C@H](C)Cc1ccc(OC)c(S(N)(=O)=O)c1 [tamsulosin]	failed to slow	0.39 ± 0.14
